Data taken from patent US10071102B2, “Injectable mirtazapine for treating appetite loss and nutritional disorders in cats” (VIRBAC, priority 2013, dated 2018).

System: appetite of cats
Experiment: Food consumption (appetite) of stressed healthy cats after dose administration
Type: in vivo, cat
Conditions: subcutaneous injection 3.75 mg vs oral 3.75 mg
Text: The purpose of these tests is to evaluate the effect of administration of mirtazapine by subcutaneous injection on the appetite of cats as compared to dose administration by the oral route (positive control) and a control (injection of saline solution, negative control). The healthy cats selected were previously acclimated for at least seven days prior to testing; during this period, they were examined by a veterinarian. They were then divided into three groups of two cats each according to a cross-over experimental design, with each cat receiving each of the 3 treatments according to a predetermined sequence: • 0.5 ml of saline (0.9% sodium chloride) was administered by subcutaneous injection in the interscapular area to the T0 group which represents the negative control; • the group T1 received a subcutaneous injection, in the interscapular area, of 0.5 ml of the tested formulation of mirtazapine (represents a dose administration of 3.75 mg of mirtazapine); • the group T3 instead received 0.25 ml (represents a dose administration of 3.75 mg of mirtazapine) of the liquid formulation by means of forced administration (syringe) in the mouth and represents the positive control group. […] The food consumption is represented in FIGS. 2A (food consumption measured at each point) and 2B (cumulative food consumption).

In the case of `CN1CCN2c3ncccc3Cc3ccccc3C2C1` (centres unmarked) [mirtazapine, 1,2,3,4,10,14b-hexahydro-2-methylpyrazino(2,1-a)pyrido(2,3-c)benzazepine], the “duration of appetite induction compared with oral administration” value is reported as “inducing appetite for a longer time period” and the “increase in appetite (food consumption) compared with same dose by oral route” value is reported as “as effective as the administration of the same dose by oral route”.
